Reference: patent US20140024683A1, “CHLORIDE CHANNEL AND CHLORIDE TRANSPORTER MODULATORS FOR THERAPY IN SMOOTH MUSCLE DISEASES” (priority 2011, published 2014)
Several values for one entry are separate records, joined by “and”; a condition that tells them apart may be missing. Equal entries are not always repeated. Where two headings read alike, the source gives them in different places. One block for each compound: values may come before it.

What was measured:
[1] = system: human airway smooth muscle cells; test: Whole cell current clamp recording of membrane potential; assay type: cell-based
Method: Induced electrophysiological changes in membrane potential and current were measured using traditional whole cell patch clamp methods. Immortalized human airway smooth muscle cells were grown to confluence on collagen-treated T25 flasks. Collagenase type IV in SmBM2 medium (Lonza, Walkersville, Md.) was used to release cells adherent to the collagen matrix in the flask. Medium with cells in suspension was then harvested in a 10-ml conical tube and centrifuged at 300×g. Supernatant was removed, and the pellet was resuspended in SmBM2 medium and transferred into collagen-treated glass bottom 1-cm Petri dishes at about 10% confluence. Each dish was then incubated at 37° C. and 5% CO2 for 1-4 hours for reattachment of cells to glass-bottom Petri dishes.
Glass-bottom dishes served as a disposable recording chamber. ALA VM-8, an 8-chamber pressure-driven drug application system, was used in a still bath of extracellular salt solution. Whole-cell intracellular voltage recordings under current clamp conditions were performed with a 2-kHz Bessel filter, recording at 10 kHz using an Axopatch 200b amplifier (Axon Instruments, Foster City, Calif., USA). Electrodes were pulled using a P-97 micropipette puller from 1.5-mm OD borosilicate capillary glass (Sutter Instruments, Novato, Calif., USA). Glass electrode resistances ranged from 5 to 10 MO with intracellular solution. Whole-cell intracellular current recordings under voltage-clamp conditions were performed with a 2-kHz Bessel filter, recording at 10 kHz using an Axopatch 200b amplifier. For current measurements (FIG. 11) intracellular solutions consisted of (in mM) 140 TEA-Cl, 5 MgATP, 5 EGTA, 1 MgCl2, 10 HEPES, and 5 CaCl2 (pH 7.2). Extracellular solution consisted of (in mM) 134 NaCl, 1.4 KCl, 10 HEPES, 1 MgCl2, 1.8 CaCl2, and 10 glucose (pH 7.4). This induced the classic spontaneously transient inward currents (STICs) and spontaneously transient outward currents (STOCs) well described in this cell type. STOCs are believed to represent activation of calcium activated potassium (KCa) channels while STICs are believed to represent activation of CaCCs. TEA-Cl was included in the buffer to enhance STICs which were then recorded during the addition of 100 μM niflumic acid. When recording TEA- and niflumic acid-induced responses on membrane potential (ΔmV), the intracellular solutions contained (in mM) 140 KCl, 5 MgATP, 5 EGTA, 1 MgCl2, 10 HEPES, and 5 CaCl2 (pH 7.2), and the extracellular solutions consisted of (in mM) 134 NaCl, 5 MgATP, 5 EGTA, 1 MgCl2, 10 HEPES, and 5 CaCl2 (pH 7.2). All recordings were analyzed on Clampfit 8.0 software (Molecular Devices).

[2] = system: human airway smooth muscle cells; test: FLIPR membrane potentiometric dye assay (Example 21); assay type: cell-based
Method: Immortalized airway smooth muscle cell lines modified to stably express human telomerase reverse transcriptase were a kind gift from Dr. William Gerthoffer (University of Southern Alabama, Mobile, Ala.) prepared as described previously (Gosens et al., 2006) and grown in Dulbecco's Modified Eagle's Medium/F12 media (GIBCO, Grand Island, N.Y.), with 10% FBS and antibiotics.
Immortalized human airway smooth muscle cells were cultured on black-walled 96 well plates to 100% confluence, and were washed four times with warmed (37° C.) assay buffer of the following composition (in mM): NaCl 140, KCl 4.7, CaCl2 2.5, MgCl2 1.2, HEPES 11, D-glucose 10. A stock solution (100% dye) of FLIPR blue dye was prepared by reconstitution of 1 vial (125 mg) with 100 ml assay buffer. A 50% working stock was prepared by further diluting the reconstituted blue dye 1:1 with assay buffer and was used to load cells (90 μl/well) over 45 min at 37° C. in a humidified cell culture incubator (95% air/5% CO2). All reagents were dissolved in assay buffer. Fluorescence was measured with a Flex Station 3 (Molecular Devices) using an excitation wavelength of 530 nm, emission wavelength of 565 nm and a cutoff filter of 550 nm. Baseline fluorescence was measured every 2 seconds for 1 minute then for 2 minutes after injection of vehicle or compound of interest as indicated (using the Flexstation's 3 integrated injection capabilities).
Human airway smooth muscle cells were incubated with FLIPR membrane potentiometric dye to assess if the chloride channel blockers changed membrane potential at the cellular level. FLIPR fluorescence will increase with depolarization, and decrease with hyperpolarization. […] Therefore, chloride channel blockade, but not NKCC blockade, hyperpolarized human airway smooth muscle cells.

[3] = system: human airway smooth muscle cells; assay type: cell-based
Method: This buffer was exchanged at 100 μl/well just before starting the measurement of fluorescence. […] In separate experiments the effect of extracellular chloride concentrations on SOCE was measured by the predepletion of extracellular calcium in low or high chloride buffer (55 mM versus 110 mM NaCl, osmotically balanced with Na gluconate) in the presence of thapsigargin to deplete intracellular calcium stores. Calcium induced fluorescence changes were measured with the reintroduction of 2 mM extracellular CaCl2.

[4] = system: guinea pig tracheal rings; test: Ex vivo airway smooth muscle force, prevention or relaxation of a contraction (Example 5); conditions: solo therapy; vs vehicle
Method: The chloride channel blocker NPPB and the chloride transporter blocker bumetanide were evaluated for their ability to prevent an initial contraction (n=5) (FIG. 23A) or to relax an existing contraction (n=6) (FIG. 23B).
As a proof of concept for chloride channel blockade in general, another chloride channel blocker, 5-nitro-2-(3-phenylpropylamino)-benzoic acid (NPPB) was used in an ex vivo guinea pig airway smooth muscle model.

[5] = system: guinea pig tracheal rings; test: Relaxation of potassium gluconate contraction in guinea pig tracheal rings; conditions: 100 μM; 80 mM potassium gluconate
Method: (§1) Animal protocols were approved by the Columbia University Animal Care and Use Committee. Male Hartley guinea pigs weighing approximately 400 g were anesthetized with intraperitoneal injection of sodium pentobarbital (100 mg/kg). Trachea were removed and transferred to ice cold Krebs-Henseleit (KH) buffer of the following composition (in mM): NaCl 118, KCl 5.6, CaCl2 0.5, MgSO4 0.24, NaH2PO4 1.3, NaHCO3 25, glucose 5.6, pH 7.4. Epithelial-denuded tracheal rings were prepared using a dissecting microscope. Epithelium was removed by gently passing cotton fibers through the lumen of the tracheal rings. The rings were suspended in 4 mL-water jacketed organ baths (37° C.: Radnoti Glass Technology, Monrovia, Calif.) and connected to a Grass FT03 force transducer (Grass Telefactor, West Warwick, R.I.) using silk sutures. The transducers were coupled to the computer with BioPac hardware and data was collected using Acqknowledge 7.3.3 software (BioPac Systems, Goleta, Calif.). KH buffer was bubbled with a gas mixture of 95% oxygen and 5% carbon dioxide and buffer was exchanged every 15 minutes for 1 hour during equilibration of tracheal rings at 1 g resting tension. […].
Many chloride channel blockers are known to also stimulate potassium channels (Greenwood et al., 2007). Thus, we performed additional studies in the presence of a large extracellular concentration of potassium to ensure that our findings of compound 1 or 13 inhibiting a TEA-induced depolarizing contraction were not due to these compounds opening a potassium channel.

[6] = system: rat lung slices; test: Airway lumen area in peripheral small airways of rat lung slices; conditions: contractile agonists
Method: The measurement of airway contraction of a luminal area of small lung airways using the ex vivo rat lung slice method was performed as described (Perez-Zoghbi et al., 2007). The trachea was cannulated with an intravenous catheter, and after the chest cavity was opened, the collapsed lungs were reinflated with 1.3±0.1 ml of 2% agarose (low-gelling temperature) in Sigma-Hanks' Balanced Salt solution (sHBSS), followed by the injection of 0.2±0.1 of air to flush the agarose-sHBSS out of the airways and into the distal alveolar space. Subsequently, a warm (37° C.) solution of gelatin (type A, porcine skin, 300 bloom, 6% in sHBSS) was perfused through the intrapulmonary blood vessels via the pulmonary artery by injecting about 0.3 ml into the right ventricle. The warm agar and gelatin were gelled with cold sHBSS. A single lung lobe was removed and cut into serial sections of about 130 μm thick with a vibratome at about 4° C., starting at the lung periphery. Slices were maintained in DMEM (Invitrogen) at 37° C. and 10% CO2 for up to 3 days. At 37° C., the gelatin in the blood vessel lumen dissolved, leaving the blood vessel lumen empty. Lung slices were mounted in a custom-made perfusion chamber and held in place with a small sheet of nylon mesh. A second cover glass edged with silicone grease was placed over the lung slice. Perfusion of the lung slice was performed using a gravity-fed perfusion system. The volume of the chamber was about 100 μl with a perfusion rate of about 800 μl/min. […] Digital images were recorded in time lapse (30 frames/min). The area of the bronchiole and arteriole lumen was calculated, from each image, by pixel summing using custom-written software. Experiments were performed at room temperature.

[7] = system: RhoA; conditions: 10 mM TEA-acetate, 2 minutes
Method: FIG. 8 is a bar graph showing RhoA activation in human airway smooth muscle cells.
Measurement of activated rhoA in cultured human airway smooth muscle cells were conducted as follows. […] Reaction was stopped by solubilizing cells in buffer. Following clearance of non-solubilized cell material, the solubilized cells were reacted with Rhotekin bound to beads, which isolated activated RhoA from total RhoA. Fractions were then analyzed on a commercially available ELISA plate that quantitates activated versus total RhoA (Cytoskeleton, Inc.)

[8] = system: guinea pig tracheal rings; test: Relaxation of TEA contraction in guinea pig tracheal rings (Example 16, library screen); conditions: 10 mM TEA
Method: as §1

[9] = system: guinea pig tracheal rings; test: Relaxation of the maintenance phase of a pre-established acetylcholine contraction, guinea pig tracheal rings; conditions: 100 μM alone; pre-contracted with EC50 acetylcholine
Method: as §1
Chloride channel blockers were then tested against the plateau phase of an established acetylcholine contraction. […]

[10] = system: human airway smooth muscle; test: Relaxation of acetylcholine contraction in human airway smooth muscle strips; conditions: 100 μM alone; EC50 acetylcholine
Method: Studies using de-identified human tissue were reviewed by the Columbia University Institutional Review Board and deemed not human subjects research. Tissues were obtained from healthy, normal organ donor discarded surgical waste subsequent to lung transplant surgery. Tissues were collected after transplant and placed in DMEM media (GIBCO) and bubbled overnight in 5% carbon dioxide and 95% oxygen at 4° C. The following morning, the smooth muscle tissue was carefully dissected under a dissecting microscope and the epithelium removed. The strips were anchored in the organ bath as described above using KH buffer of the same composition. The strips were allowed to equilibrate for 1 hour with buffer exchanges every 15 minutes and were treated with 10^−6 M tetrodotoxin, 10^−5 M pyrilamine, and 10^−5
M MK571. Strips were contracted with an EC50 dose of acetylcholine (Ach)
This experiment was then repeated with human airway smooth muscle to investigate clinical relevance as a model of bronchospasm in humans.

[11] = system: guinea pig tracheal rings; test: Potentiation of isoproterenol relaxation of acetylcholine contraction, guinea pig tracheal rings; conditions: 50 μM compound 13
Method: as §1
Therefore, we tested whether the chloride channel blockers or modulation of chloride flux could be used in combination with β-agonists to potentiate their effects. […]. Therefore, a combination of treatment with compound 13 and bumetanide potentiated the relaxation effect of isoproterenol.

[12] = system: Ca^2+-activated chloride channel; test: Patch-clamp analysis of spontaneous transient inward currents (STICs)
[13] = 10 μM compound 13 and bradykinin, n=5
[14] = 10 μM compound 13 plus 30 μM bradykinin, n=5
[15] = compound 13 under basal conditions, n=9

SMILES: O=C([O-])[C@H](O)[C@@H](O)[C@H](O)[C@H](O)CO.[K+] [K gluconate, potassium gluconate]
membrane potential (current clamp, whole cell) ([1]; 60-75 mM potassium (K)-gluconate): depolarized the cell | membrane potential, continuous fluorescence recording (representative tracing) [2]: depolarizes | intracellular calcium (fluo4-AM fluorescence) [3]: increased calcium

SMILES: O=C(O)c1cc([N+](=O)[O-])ccc1NCCCc1ccccc1 [NPPB, 5-nitro-2-(3-phenylpropylamino)-benzoic acid]
relaxation of an existing contraction [4]: effective in relaxing an existing contraction | percent of potassium gluconate-induced contraction at 30 minutes [5]: 56.71%±10.6 and 56.7%±10.6

SMILES: CC[N+](CC)(CC)CC.[Cl-] [TEA, tetraethylammonium chloride]
membrane potential (current clamp, whole cell) ([1]; 10 mM TEA-Cl): depolarized the cell | percent decrease in lumen area compared to rest [6]: significant decrease in lumen area | intracellular calcium (fluo4-AM fluorescence) ([3]; 10 mM TEA): does not increase intracellular Ca^2+ | RhoA activation [7]: activates rhoA

shift of the EC50 of isoproterenol [11]: 2.2 fold
SMILES: O=C(O)c1cc(Cl)ccc1NCc1cccc2ccccc12 [compound 13, 5-chloro-2-(1-naphthylmethylamino)benzoic acid]
percent of the TEA-induced contraction remaining at 15 minutes ([8]; 100 μM): 61.0±10.1% | relaxed fraction of a TEA-induced contraction at 15 minutes after drug addition ([8]; 100 μM): 39.0% | relaxation of TEA-induced contraction (screen of 20-compound chloride channel blocker library) [8]: most potently relax | percent of potassium gluconate-induced contraction at 30 minutes [5]: 68.17%±4.9 and 68.2%±4.9 | relaxation of established acetylcholine contraction [9]: 60.1%±5.7 | relaxation of acetylcholine contraction [10]: 52.5%±8.1 | change in relative fluorescent units (membrane potential, FLIPR) ([2]; 100 μM, n=12): −264.2+/−40 RFU | amplitude of STICs ([12]; 10 μM compound 13 alone, n=9): 0.44±0.09 fold change with control normalized to 1 | frequency of STICs ([12]; 10 μM compound 13 alone, n=9): 0.4±0.1 fold change with control normalized to 1 | amplitude of STICs compared to control [12, 13]: 46% | frequency of STICs compared to control [12, 13]: 40% | amplitude of STICs [12, 14]: 0.46±0.13 fold change with control normalized to 1 | frequency of STICs [12, 14]: 0.4±0.14 fold change with control normalized to 1 | amplitude of STICs [12, 15]: 44 % of control | frequency of STICs [12, 15]: 40 % of control
